Source: patent US20260130952A1, “ENGINEERED BACTERIA AND METHODS OF USE IN TUMOR REMODELING” (priority 2021, published 2026)

Test system: 4T1 tumors
Assay: Antitumor study in 4T1 syngeneic tumor model
Format: in vivo, BALB/cJ mice
Protocol: 6-8 weeks old female BALB/cJ and male C57BL/6 mice (Jackson Labs) were used in all experiments. For tumor induction, […] tumor cells/0.1 ml saline (4T1, MDA-MB-231, RInk1, PANC1, MC38) were injected subcutaneously in the shaved right flank of anesthetized (2% isoflurane) mice. Tumor measurements were taken every alternate day and tumor volume was calculated using the following formula: 0.5*length*width*width. For therapeutic assessment or bioluminescent imaging, each bacterial dose contained […] bacteria suspended in 0.1 ml saline was administered intravenously. Lapatinib was suspended in a solution containing 0.5% w/v HPMC and 0.10% w/v Tween 80 and each dose delivered 5 mg/Kg orally. At the study end point the mice were euthanized via carbon dioxide inhalation and cervical dislocation followed by collection of organs. For cytokine profiling, blood withdrawal was performed after a period of 24 hours via the submandibular vein and collected in tubes containing heparin as an anticoagulant (40 U/ml of blood). […]
To test the hypothesis, mice were treated orally with lapatinib at a dose of 5 mg/kg (FIG. 5A). The following 5 treatment groups were assessed in parallel: control mice with saline injections, non-hypervesiculating ECHy+lapatinib, ΔECHy, lapatinib and ΔECHy+lapatinib (n=5). Tumor volume was measured every alternate day. […]

CS(=O)(=O)CCNCc1ccc(-c2ccc3ncnc(Nc4ccc(OCc5cccc(F)c5)c(Cl)c4)c3c2)o1 [lapatinib]
median survival (endpoint tumor size 1000 mm^3, bacteria 10^6 i.v., lapatinib 5 mg/kg oral, anti-PDL1 5 mg/kg): 20 days | tumor growth rate / progression (n=5): comparatively slower
